We go through seven substances from article PMC11807808, “In vitro gastrointestinal digestion simulation screening of novel ACEI peptides from broccoli: mechanism in high glucose-induced VSMCs dysfunction” (Frontiers in Nutrition, 2025).

The subject of data set [1] is VSMCs. The data set is described as follows: Western blot of protein expression in VSMCs (Ang II-induced or high glucose). The following applies: for ACE expression / expression of PCNA, MMP2, Bcl2 and Bax: VSMCs in high glucose (HG) + peptide. The class given is cell-based, Sprague–Dawley rats. The procedure:
(§1) Thoracic aortas from male Sprague–Dawley rats (250–300 g) were dispersed in HBSS solution, which contained 1 mg/mL collagenase II (146 U/mg, Worthington Biochemical Corp., Freehold, NJ) and 0.5 mg/mL elastase I (32 U/mg, Worthington Biochemical Corp., Freehold, NJ). The mixture was digested for 90 min to obtain the appropriate VSMCs. The obtained VSMCs were subsequently cultured in DMEM supplemented with 10% FBS, 2 mmol/L glutamine, and 1 g/L D-glucose at 37°C in a humidified atmosphere of 5% CO2. The purity of the VSMCs was evaluated by the smooth muscle cell-specific marker SM22α (>97% for the stained cells). All the VSMCs used for the experiments were between the 3rd and 8th passages.
Protein was extracted with RIPA buffer. Equal amounts of protein were separated via 8–10% SDS–PAGE (ACE, Changzhou, China) and then transferred to 0.22 μm PVDF membranes (Millipore, Bedford, MA, USA). The membranes were blocked with 5% skim milk and incubated overnight with the appropriate primary antibodies. HRP-conjugated secondary antibodies were then applied for binding and visualization through Western blot luminol reagent. Densitometry quantification was performed with ImageJ-V1.8.0.
A general note: In western blotting, separated proteins are transferred to a membrane and probed.

Data set [2] has as its system VSMCs. Description: CCK-8 cell viability of VSMCs in high glucose. The format is cell-based, Sprague–Dawley rats. The following applies: high glucose (HG); for VSMC proliferation / viability: peptides 0.0313-0.5 mg/mL. On the procedure:
as §1
The cells (4 × 10^3 cells/well) were seeded into 96-well plates and cultured overnight. The cells were subjected to serum deprivation for 24 h. Then, the culture mixture was removed, and 100 μL of free FBS culture mixture was added to the above culture mixture. Ten microliters of CCK-8 solution was added to each well. The plates were read with a BioTek Epoch 2 Microplate Spectrophotometer (Agilent Technologies, California, USA). The experiment was organized into seven groups, which included a normal group, a high glucose group, and peptide segments: HLEVR, LTEVR, LEHGF, HLVNK, and LLDGR. These segments were tested at concentrations of 0.0313, 0.0625, 0.125, 0.25, and 0.5 mg/mL.

For data set [3], the system named is Ang II. The data set is described as follows: Ang II level in VSMCs cultured in high glucose (ELISA). The class given is cell-based, Sprague–Dawley rats. The following applies: high glucose (HG) + peptide. The procedure: as §1
The cells (2 × 10^4 cells per well) were first seeded into 24-well plates overnight. The supernatants were collected to measure the expression levels of Ang II via angiotensin II ELISA kits (ER1637, FineTest, Wuhan, China) according to the manufacturer's protocol. The absorbance of each well at 450 nm was determined via a multimode plate reader (BioTek Epoch2, Santa Clara, US).
For orientation: An ELISA detects its analyte on a solid surface through an enzyme-linked reagent.

Data set [4] is described as follows: In vitro simulated gastrointestinal digestion (pepsin, trypsin): digestibility / digestion stability. Particulars: stability under digestion conditions in vitro; pepsin pH 2.0 37°C 2 h, then trypsin pH 8.0 37°C 2 h as described for the hydrolysate; mean ± spread. The class given is in vitro ADME. The procedure:
In vitro digestion simulation was performed based on the method of Hao et al. ([24]). Broccoli protein suspension (5%, w/v) was hydrolyzed with papain (1%, E/S ratio) for 6 h (pH 7.0, 55°C). After hydrolysis, inactivated at 100°C for 10 min and cooled to 25°C. Based on the method of Hao et al. ([24]), the simulated digestion of broccoli papain hydrolysate was conducted. In short, 0.1 g pepsin (pH = 2.0) was mixed with the hydrolysate and placed at 37°C for 2 h. Then 0.2 g trypsin (pH = 8.0) was added and incubated at 37°C for 2 h. After enzymatic hydrolysis, the enzyme was inactivated at 95°C for 10 min, cooled to 25°C, and the supernatant was collected. Subsequently, freeze-dried broccoli crude peptide was applied to the determination of ACEI activity.
The crude protein hydrolysis of broccoli was analyzed by high performance liquid chromatography (Agilent 1260, California, USA). The Column was XBridge Peptides BEH C18 Column 130A, 4.6 × 250 mm, 5 μm (Waters, Massachusetts, USA). Column temperature: 37°C. Flow rate: 1 mL/min. Sample size: 100 μL. Mobile phase: 0.1% trifluoroacetic acid aqueous solution (phase A) and pure acetonitrile (phase B). Detection wavelengths: 214 and 280 nm. Elution gradient: 0–5 min, 100%A/0%B; 5–25 min, 60%A/40%B; 25–26 min, 20%A/80%B; 26–31 min, 20%A/80%B; 31–32 min, 100%A/0%B; 32–37 min, 100%A/0%B.

The target of data set [5] is T1, Angiotensin converting enzyme (ACE) (Homo sapiens, UniProt P12821).
T1 construct: purchased Sigma–Aldrich (Shanghai) Trading Co., Ltd
T1 sequence (P12821 30-1306, species assumed): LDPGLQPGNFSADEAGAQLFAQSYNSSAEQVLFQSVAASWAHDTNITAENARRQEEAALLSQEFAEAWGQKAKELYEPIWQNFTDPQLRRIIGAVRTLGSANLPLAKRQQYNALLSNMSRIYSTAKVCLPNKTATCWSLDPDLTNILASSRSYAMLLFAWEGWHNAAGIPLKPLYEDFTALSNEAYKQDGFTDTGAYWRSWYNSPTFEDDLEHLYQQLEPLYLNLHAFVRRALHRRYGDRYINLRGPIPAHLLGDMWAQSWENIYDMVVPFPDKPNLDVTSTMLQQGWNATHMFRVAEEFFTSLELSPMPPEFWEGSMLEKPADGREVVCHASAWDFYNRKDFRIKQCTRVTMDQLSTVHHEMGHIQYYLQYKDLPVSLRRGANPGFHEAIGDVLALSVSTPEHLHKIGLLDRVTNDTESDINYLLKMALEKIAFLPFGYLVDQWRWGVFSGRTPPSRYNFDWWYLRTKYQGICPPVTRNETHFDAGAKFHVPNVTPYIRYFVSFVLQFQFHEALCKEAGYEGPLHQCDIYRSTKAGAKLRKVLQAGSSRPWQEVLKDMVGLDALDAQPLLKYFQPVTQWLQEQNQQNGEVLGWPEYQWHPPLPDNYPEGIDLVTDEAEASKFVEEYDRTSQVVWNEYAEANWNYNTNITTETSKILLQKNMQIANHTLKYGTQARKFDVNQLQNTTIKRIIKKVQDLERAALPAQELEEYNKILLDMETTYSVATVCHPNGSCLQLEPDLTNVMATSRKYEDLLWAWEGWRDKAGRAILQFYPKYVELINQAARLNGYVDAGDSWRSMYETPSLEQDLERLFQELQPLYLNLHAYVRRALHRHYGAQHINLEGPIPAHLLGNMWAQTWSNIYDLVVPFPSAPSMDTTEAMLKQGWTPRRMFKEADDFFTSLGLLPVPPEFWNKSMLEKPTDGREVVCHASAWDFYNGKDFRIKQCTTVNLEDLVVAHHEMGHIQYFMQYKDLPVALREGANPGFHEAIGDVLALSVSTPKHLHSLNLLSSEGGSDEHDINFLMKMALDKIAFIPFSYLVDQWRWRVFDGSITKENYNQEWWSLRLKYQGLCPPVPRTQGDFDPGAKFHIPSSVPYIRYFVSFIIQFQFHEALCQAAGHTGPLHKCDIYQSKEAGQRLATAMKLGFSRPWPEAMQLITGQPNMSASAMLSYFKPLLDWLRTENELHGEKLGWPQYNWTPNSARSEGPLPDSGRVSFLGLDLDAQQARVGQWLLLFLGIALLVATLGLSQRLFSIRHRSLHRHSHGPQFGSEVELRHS
The data set is described as follows: ACE inhibitory (ACEI) activity, HHL substrate, HPLC detection of hippuric acid. The format is biochemical. Particulars: synthetic peptides; HHL 5 mM, ACE 0.025 U/mL, 37°C 60 min, HPLC 228 nm. On the procedure: Eighty microlitres of HHL solution (5 mM) and 30 μL of sample mixture were incubated at 37°C for 5 min. Then, 40 μL of ACE solution (0.025 U/mL) was added to the mixture, followed by incubation at 37°C for 60 min. The reaction was terminated by adding 120 μL of 1 M HCl. After the addition of 700 μL of pure water, the mixture was filtered through a 0.22 μm membrane ([25]). The experiment included four groups: a control group (pure water), a negative control group (blank digestion solution), a positive control group (protein mixture), and a sample group (protein digestion solution). In the control group, HCl was added immediately after ACE.
Chromatograms were recorded via an Agilent instrument (Agilent, California, USA). Column: CAPCELL CORE AQ C18, 4.6 × 150 mm, 5 μm (Shiseido, Tokyo, Japan). Column temperature: 30°C. Flow rate: 1 mL/min. The injection volume was 100 μL. Mobile phase: 0.1% trifluoroacetic acid aqueous solution (A) and pure acetonitrile (B). Detection wavelength: 228 nm. Elution gradient: 0–10 min, 80% A/20% B. The calculation method was as follows:
Inhibitionrate(%)=[PA]c-[PA]s/[PA]c-[PA]b×100%
where [PA]c, [PA]s, and [PA]b represented the peak area of HA at 228 nm of the control group, experimental group, and blank group, respectively.

Data set [6] has as its system Caco-2 cells. The data set is described as follows: Caco-2 cell monolayer transport model (absorption simulation). The format is in vitro ADME. Particulars: Caco-2 monolayer integrity marker, 12-well inserts, TEER 468.09 ± 37.54 Ω/cm^2. On the procedure: Caco-2 cells were obtained from the Cell Bank of the Chinese Academy of Sciences. The cells were cultured in Dulbecco's modified Eagle's medium (DMEM) supplemented with 20% FBS and 1% penicillin/streptomycin (P/S) at 37°C and 5% CO2 in a humidified incubator.
Caco-2 cells were seeded in each chamber of a 12-well plate, which was equipped with cell culture inserts ([26]). The transepithelial electrical resistance (TEER) across the monolayer was measured every 2 days via a cell resistance meter (RE1600, Beijing Jegon Instrumentation Co., Ltd.). The integrity of the cell monolayer was assessed with fluorescein isothiocyanate (FITC). TEER values > 350 Ω/cm^2 were considered to indicate successful construction and validation of the Caco-2 cell transport model. The FITC permeability was < 5 × 10^−[…], indicating the integrity of the cell monolayer.
Broccoli protease hydrolysate was added to the apical (AP) side. After 120 min, the media from both the AP and basolateral (BL) sides were collected for subsequent analysis. The wells without cells or samples served as the control group, whereas the wells without samples served as the blank group.

Entries after “also recorded” stand apart in the source; their conditions may differ. Where no end group is shown, it is not given here.

Take “angiotensin II (DRVYIHPF; Angiotensin-2; UniProt P01019 25-32, looked up) [Ang II, angiotensin II, used to induce VSMC dysfunction]”: in data set [1] (VSMCs treated with Ang II), the “downregulation of ACE2 expression” value was found to be 15.60 ± 0.028%, the “upregulation of ACE expression” value was 136.50 ± 0.017%, the “upregulation of AT1R expression” value is given as 27.31 ± 0.020% and the “upregulation of BCL2 expression” value was 40.26 ± 0.051%. Moreover, in data set [1] (VSMCs treated with Ang II), the “upregulation of ERK1/2/Total ERK” value amounted to 128.17 ± 0.028%, the “upregulation of MMP2 expression” value came to 14.97 ± 0.044%, the “upregulation of PCNA expression” value came to 49.56 ± 0.01% and the “upregulation of pp38/Total p38” value turned out to be 14.58 ± 0.041%.

With HLVNK [HLVNK], the “VSMC proliferation / viability” value in data set [2] is “effectively reduce VSMC viability”. For the same substance, the “Ang II levels in VSMCs” value in data set [3] is listed as “significantly inhibit intracellular Ang II levels”. Further, the “Ang II levels in VSMCs” value in data set [3] (listed as HLLVNK) is given as “significantly reduced Ang II levels”. In data set [1], the ACE expression result was “modulated ACE expression”; the “expression of PCNA, MMP2, Bcl2 and Bax” value was “significantly restored the expression of these proteins”. For the same substance, the “Digestion stability (%)” value in data set [4] is recorded as 95.78 ± 3.73%. Also, the half-maximal inhibitory concentration (IC50) (in general, the point on the concentration scale where inhibition reaches its midpoint) in data set [5] turned out to be 0.06 ± 0.01 mM.

In data set [5], LLDGR [LLDGR] gave an IC50 of 2.81 ± 0.12 mM.

In the case of LTEVR [LTEVR], the “cell viability of VSMCs” value in data set [2] (peptide 0.5 mg/mL) is given as “not significant”. Also, the “VSMC proliferation / viability” value in data set [2] is given as “effectively reduce VSMC viability”. For the same substance, the “Ang II levels in VSMCs” value in data set [3] is on record as “significantly reduced Ang II levels; also recorded: significantly inhibit intracellular Ang II levels”. Also, in data set [1], the ACE expression entry is “modulated ACE expression”; the “expression of PCNA, MMP2, Bcl2 and Bax” value is “significantly restored the expression of these proteins”. Moreover, the “Digestion stability (%)” value in data set [4] is reported as 98.82 ± 3.92%. For the same substance, the IC50 in data set [5] turned out to be 17.1 ± 1.37 mM.

Regarding HLEVR [HLEVR], the “Digestion stability (%)” value in data set [4] is 94.27 ± 2.64%. Moreover, the IC50 in data set [5] came to 3.19 ± 0.23 mM.

lucifer yellow: the “apparent permeability coefficient (Papp)” value in data set [6] was 2.87 ± 0.53 × 10^−7 cm^2/s.

Turning to LEHGF [LEHGF], the “Digestion stability (%)” value in data set [4] is reported as 97.85 ± 6.31%. In data set [5], this substance returned an IC50 of 0.64 ± 0.02 mM.
